Read-outs that look alike come from different tables or passages of the source.
What was measured:
[1] = system: MDA-MB-231 human breast cancer cell line; experiment: MTT assay of MDA-MB-231 cells; type: cell-based; conditions: media containing 5% fetal bovine serum
Protocol: MDA-MB-231 and MCF7 cells were plated at a density of 8×10^3 cells/well and 10^4 cells/well in 96-well culture plates, respectively. The compounds were fed in serum free media containing 5% and 1% fetal bovine serum for MDA-MB-231 and MCF7 cells, respectively.

[2] = system: MCF 10A non-tumorigenic mammary epithelial cells; experiment: MTT assay of MCF10A cells; type: cell-based, human
Outline: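 MCF 10A non-tumorigenic human mammary epithelial cells were seeded at 10×10^4 cells/well and treated with compounds in serum-free medium, final DMSO below 0.1%. Viability was read by MTT, and IC50 came from non-linear regression. Selectivity index = MCF 10A IC50 ÷ +SA cell line IC50.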

[3] = system: +SA mammary tumor; experiment: +SA tumor implantation into mammary fat pads of syngeneic BALB/c mice; type: in vivo
From the text: The malignant +SA mammary epithelial cell line was derived from an adenocarcinoma that developed spontaneously in a female BALB/c mouse. These cells can be grown on plastic in culture and display the ability to grow in soft agarose. Re-implantation of +SA mammary tumor cells back into the mammary fat pad of syngeneic mice results in the rapid development and growth of metastatic tumors. Prior to experimentation, +SA cells were serially passaged at subconfluent cell density. For subculturing, cells are rinsed with calcium/magnesium-free phosphate buffered saline (PBS) and incubated in 0.05% trypsin containing 0.025% EDTA in PBS for 5 min at 37° C. […] Cell pellets are then resuspended in control culture media, counted by hemocytometer, and then plated at the desired density in culture plates. […] On the day of tumour implantation, +SA cells grown in culture are isolated with trypsin, washed, counted and diluted to the desired concentration in fresh culture medium. […] Tumor size and body weighs were recorded every other day. Average tumor diameter for each palpable tumor was determined using the mean of the 2 largest perpendicular diameters as measured with vernier calipers. Tumor volume was determined using the equation: Volume=Length (cm)×Width^2 (cm)/2 or V=L×W^2/2 […]

SMILES	IC50 [1]	IC50 ([2]; MCF10A cells, Table II, non-linear regression, read-out: MCF10A (IC50))	IC50 ([2]; MCF 10A non-tumorigenic cells, Table I, read-out: IC50 MCF 10A)	body weights ([3]; 0.5 mg/day intravenous, 14-day treatment period)	+SA mammary tumor growth ([3]; 0.5 mg/day, tail vein injection, 14 day, vs vehicle-treated control)
CC(C)=CCC/C(C)=C/CC/C(C)=C/CC[C@]1(C)CCc2cc(O)c(C)c(C)c2O1 [Compound 1, γ-tocotrienol, reference compound]	9.4 µM	4.4 µM	4.4 µM		
COc1ccc(CCNCc2c(O)c(C)c(C)c3c2CC[C@@](C)(CC/C=C(\C)CC/C=C(\C)CCC=C(C)C)O3)cc1OC [Compound 30, (R)-5-((3,4-dimethoxyphenethylamino)methyl)-2,7,8-trimethyl-2-((3E,7E)-4,8,12-trimethyltrideca-3,7,11-trienyl)chroman-6-ol]				did not significantly differ	grew at a significantly slower rate

Source: US9115145B2, “Tocotrienol derivatives and associated methods” (FIRST TECH INTERNATIONAL LIMITED, priority 2011, dated 2015)
